Measured values taken from PubChem BioAssay AID192 (DTP/NCI, 2004).
“And” between values parts separate entries of the source, which are not always exact repeats. Equal entries are not always repeated. Inconclusive results and toxic doses are left out.

System: BDF1 mice, B16 melanoma ip, median survival T/C
Experiment: NCI In Vivo Anticancer Drug Screen. Data for tumor model B16 Melanoma (intraperitoneal) in B6D2F1 (BDF1) mice
Conditions: endpoint: median survival time, higher = longer survival
How it was run: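 Mice with transplantable tumors; drug vs vehicle groups; endpoint survival or tumor size; value = T/C.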

[1] = dose: 200.0 mg/kg/injection, schedule: Q01DX009 (ip), vehicle: saline
[2] = dose: 25.0 mg/kg/injection, schedule: Q01DX009 (ip), vehicle: Klucel (hydroxypropylcellulose) (HPC)
[3] = dose: 50.0 mg/kg/injection, schedule: Q01DX009 (ip), vehicle: Klucel (hydroxypropylcellulose) (HPC)
[4] = dose: 100.0 mg/kg/injection, schedule: Q01DX009 (ip), vehicle: Klucel (hydroxypropylcellulose) (HPC)
[5] = dose: 200.0 mg/kg/injection, schedule: Q01DX009 (ip), vehicle: Klucel (hydroxypropylcellulose) (HPC)
[6] = dose: 100.0 mg/kg/injection, schedule: Q01DX009 (ip), vehicle: saline
[7] = dose: 12.5 mg/kg/injection, schedule: Q01DX009 (ip), vehicle: Klucel (hydroxypropylcellulose) (HPC)
[8] = dose: 50.0 mg/kg/injection, schedule: Q01DX009 (ip), vehicle: saline with Tween-80
[9] = dose: 100.0 mg/kg/injection, schedule: Q01DX009 (ip), vehicle: saline with Tween-80
[10] = dose: 200.0 mg/kg/injection, schedule: Q01DX009 (ip), vehicle: saline with Tween-80
[11] = dose: 25.0 mg/kg/injection, schedule: Q01DX009 (ip), vehicle: saline
[12] = dose: 50.0 mg/kg/injection, schedule: Q01DX009 (ip), vehicle: saline
[13] = dose: 12.5 mg/kg/injection, schedule: Q01DX009 (ip), vehicle: saline

## O=c1[nH][nH]c(=O)n1O
dose: 130.0 mg/kg/injection, schedule: Q01DX009 (ip), vehicle: saline
  T/C: 112 % of control
[1]
  T/C: 103 % of control
dose: 300.0 mg/kg/injection, schedule: Q01DX009 (ip), vehicle: saline
  T/C: 115 % of control

## Cc1ccc(S(=O)(=O)NC(=O)C2C(=O)CC3(CCCCC3)CC2=O)cc1
[2]
  T/C: 97 % of control
[3]
  T/C: 100 % of control and 111 % of control
[4]
  T/C: 96 % of control and 113 % of control
[5]
  T/C: 94 % of control

## N#CCc1ccccc1C(=O)O
dose: 100.0 mg/kg/injection, schedule: Q04DX003 (ip), vehicle: gum acacia
  T/C: 97 % of control

## CCN(CC)CCCC(C)Nc1c2ccc(Cl)cc2nc2ccc(OC)cc12 (configuration not stated)
dose: 8.0 mg/kg/injection, schedule: Q01DX009 (ip), vehicle: saline with Tween-80
  T/C: 94 % of control and 102 % of control
dose: 8.0 mg/kg/injection, schedule: Q01DX009 (ip), vehicle: saline
  T/C: 100 % of control
dose: 8.0 mg/kg/injection, schedule: Q01DX009 (ip), vehicle: suspension in saline
  T/C: 103 % of control
dose: 16.0 mg/kg/injection, schedule: Q01DX009 (ip), vehicle: saline with Tween-80
  T/C: 88 % of control and 107 % of control
dose: 16.0 mg/kg/injection, schedule: Q01DX009 (ip), vehicle: saline
  T/C: 102 % of control
dose: 16.0 mg/kg/injection, schedule: Q01DX009 (ip), vehicle: suspension in saline
  T/C: 105 % of control
dose: 20.0 mg/kg/injection, schedule: Q04DX003 (ip), vehicle: saline with Tween-80
  T/C: 96 % of control
dose: 32.0 mg/kg/injection, schedule: Q01DX009 (ip), vehicle: saline with Tween-80
  T/C: 116 % of control and 118 % of control
dose: 32.0 mg/kg/injection, schedule: Q01DX009 (ip), vehicle: saline
  T/C: 104 % of control
dose: 32.0 mg/kg/injection, schedule: Q01DX009 (ip), vehicle: suspension in saline
  T/C: 107 % of control
dose: 40.0 mg/kg/injection, schedule: Q04DX003 (ip), vehicle: saline with Tween-80
  T/C: 105 % of control
dose: 80.0 mg/kg/injection, schedule: Q04DX003 (ip), vehicle: saline with Tween-80
  T/C: 101 % of control
dose: 128.0 mg/kg/injection, schedule: Q01DX009 (ip), vehicle: saline with Tween-80
  T/C: 152 % of control

## COc1cc(OC)c(/C=C/c2c3ccccc3cc[n+]2C)c(OC)c1
dose: 0.78 mg/kg/injection, schedule: Q01DX009 (ip), vehicle: saline with Tween-80
  T/C: 97 % of control
dose: 1.56 mg/kg/injection, schedule: Q01DX009 (ip), vehicle: saline with Tween-80
  T/C: 102 % of control

## c1ccc(COB(OCc2ccccc2)OCc2ccccc2)cc1
[6]
  T/C: 108 % of control
[1]
  T/C: 97 % of control
dose: 400.0 mg/kg/injection, schedule: Q01DX009 (ip), vehicle: saline
  T/C: 87 % of control

## C=CCNC(=S)Nc1cccc(Cl)c1C
dose: 12.5 mg/kg/injection, schedule: Q04DX003 (ip), vehicle: Klucel (hydroxypropylcellulose) (HPC)
  T/C: 93 % of control
dose: 25.0 mg/kg/injection, schedule: Q04DX003 (ip), vehicle: Klucel (hydroxypropylcellulose) (HPC)
  T/C: 100 % of control
dose: 50.0 mg/kg/injection, schedule: Q04DX003 (ip), vehicle: Klucel (hydroxypropylcellulose) (HPC)
  T/C: 100 % of control

## Cc1ccc(NC(=O)c2cccc(C(=O)Nc3ccc(C)cc3C)c2)c(C)c1
[7]
  T/C: 115 % of control
[2]
  T/C: 96 % of control
[3]
  T/C: 102 % of control

## c1ccc(CC2NCCc3c2[nH]c2ccccc32)cc1 (configuration not stated)
[7]
  T/C: 105 % of control
[2]
  T/C: 91 % of control and 95 % of control
[3]
  T/C: 86 % of control and 89 % of control
[4]
  T/C: 86 % of control
[5]
  T/C: 105 % of control

## ClCC[Se](Cl)(Cl)c1ccccc1
dose: 0.78 mg/kg/injection, schedule: Q01DX009 (ip), vehicle: saline
  T/C: 96 % of control
dose: 1.56 mg/kg/injection, schedule: Q01DX009 (ip), vehicle: saline
  T/C: 105 % of control
dose: 3.12 mg/kg/injection, schedule: Q01DX009 (ip), vehicle: saline
  T/C: 113 % of control

## C[Si](C)(C)O/C=C1\CCCCC1=O
dose: 6.25 mg/kg/injection, schedule: Q01DX009 (ip), vehicle: saline with Tween-80
  T/C: 96 % of control
dose: 12.5 mg/kg/injection, schedule: Q01DX009 (ip), vehicle: saline with Tween-80
  T/C: 99 % of control
dose: 25.0 mg/kg/injection, schedule: Q01DX009 (ip), vehicle: saline with Tween-80
  T/C: 92 % of control
[8]
  T/C: 94 % of control
[9]
  T/C: 88 % of control
[10]
  T/C: 94 % of control

## Cc1ccc(N2CSC(=S)N(c3ccc(C)cc3)C2)cc1
[4]
  T/C: 86 % of control and 109 % of control
[5]
  T/C: 86 % of control and 109 % of control
dose: 400.0 mg/kg/injection, schedule: Q01DX009 (ip), vehicle: Klucel (hydroxypropylcellulose) (HPC)
  T/C: 102 % of control

## COc1c(Cl)cc2c(c1OC)N(C)C1N3C(=O)C4(C)SSC3(C(=O)N4C)C(O)C21O (configuration not stated)
dose: 0.12 mg/kg/injection, schedule: Q01DX009 (ip), vehicle: Klucel (hydroxypropylcellulose) (HPC)
  T/C: 103 % of control
dose: 0.25 mg/kg/injection, schedule: Q01DX009 (ip), vehicle: Klucel (hydroxypropylcellulose) (HPC)
  T/C: 106 % of control

## NC(=O)Nc1n[nH]c(-c2ccccc2)n1
[11]
  T/C: 99 % of control
[12]
  T/C: 99 % of control
[6]
  T/C: 86 % of control

## Nc1cc(Cl)c2cccnc2c1O
dose: 22.0 mg/kg/injection, schedule: Q01DX009 (ip), vehicle: saline
  T/C: 115 % of control
dose: 33.0 mg/kg/injection, schedule: Q01DX009 (ip), vehicle: saline
  T/C: 120 % of control
dose: 44.0 mg/kg/injection, schedule: Q04DX003 (ip), vehicle: saline
  T/C: 106 % of control
dose: 66.0 mg/kg/injection, schedule: Q04DX003 (ip), vehicle: saline
  T/C: 106 % of control
dose: 100.0 mg/kg/injection, schedule: Q04DX003 (ip), vehicle: saline
  T/C: 86 % of control

## CCN(CC)C(C)CN1c2ccccc2Sc2ccccc21 (configuration not stated)
dose: 6.25 mg/kg/injection, schedule: Q01DX009 (ip), vehicle: saline
  T/C: 95 % of control
[13]
  T/C: 105 % of control
[11]
  T/C: 105 % of control
[12]
  T/C: 112 % of control
[6]
  T/C: 112 % of control

## CC1OC(O[C@H]2C[C@](O)(C(C)O)Cc3c(O)c4c(c(O)c32)C(=O)c2c(O)cccc2C4=O)CC(NC=O)C1O (some centres not stated)
dose: 2.0 micrograms/kg/injection, schedule: Q01DX009 (ip), vehicle: saline
  T/C: 154 % of control
dose: 4.0 micrograms/kg/injection, schedule: Q01DX009 (ip), vehicle: saline
  T/C: 154 % of control
dose: 8.0 micrograms/kg/injection, schedule: Q01DX009 (ip), vehicle: saline
  T/C: 192 % of control
dose: 16.0 micrograms/kg/injection, schedule: Q01DX009 (ip), vehicle: saline
  T/C: 249 % of control
dose: 32.0 micrograms/kg/injection, schedule: Q01DX009 (ip), vehicle: saline
  T/C: 195 % of control

## C1CCC(=NN=C2CCCCC2)CC1
dose: 50.0 mg/kg/injection, schedule: Q04DX003 (sc), vehicle: olive oil, sesame oil, peanut oil
  T/C: 111 % of control
dose: 100.0 mg/kg/injection, schedule: Q04DX003 (sc), vehicle: olive oil, sesame oil, peanut oil
  T/C: 95 % of control
dose: 200.0 mg/kg/injection, schedule: Q04DX003 (sc), vehicle: olive oil, sesame oil, peanut oil
  T/C: 102 % of control

## COC(=O)[C@@H]1c2cc3c(c(O)c2[C@@H](OC)C[C@@]1(C)O)C(=O)c1c(O)cc2c(c1C3=O)OC1O[C@@]2(C)[C@H](O)[C@@H](N(C)C)[C@@H]1O
[13]
  T/C: 155 % of control and 158 % of control
[11]
  T/C: 165 % of control and 178 % of control
[12]
  T/C: 184 % of control and 186 % of control
[1]
  T/C: 153 % of control

## CCOC(=O)c1ccc(NS(=O)c2ccccc2)cc1 (configuration not stated)
[8]
  T/C: 105 % of control
[9]
  T/C: 91 % of control

## NC(CCSCc1ccccc1)C(=O)O (configuration not stated)
[9]
  T/C: 105 % of control
[10]
  T/C: 96 % of control
dose: 400.0 mg/kg/injection, schedule: Q01DX009 (ip), vehicle: saline with Tween-80
  T/C: 87 % of control

## COc1cc2c(c(OC)c1OC)-c1ccc(SC)c(=O)cc1[C@@H](NC1OC(CO)C(O)C(O)C1O)CC2 (some centres not stated)
[6]
  T/C: 120 % of control

## NC(=O)c1nn(C2OC(CO)C(O)C2O)c2ncnc(N)c12 (configuration not stated)
dose: 1.25 mg/kg/injection, schedule: Q01DX009 (ip), vehicle: Klucel (hydroxypropylcellulose) (HPC)
  T/C: 96 % of control
dose: 2.5 mg/kg/injection, schedule: Q01DX009 (ip), vehicle: Klucel (hydroxypropylcellulose) (HPC)
  T/C: 104 % of control
dose: 5.0 mg/kg/injection, schedule: Q01DX009 (ip), vehicle: Klucel (hydroxypropylcellulose) (HPC)
  T/C: 107 % of control
dose: 10.0 mg/kg/injection, schedule: Q01DX009 (ip), vehicle: Klucel (hydroxypropylcellulose) (HPC)
  T/C: 118 % of control
[2]
  T/C: 103 % of control
